In article PMC9686989, “Exploration of Molecular Structure, DFT Calculations, and Antioxidant Activity of a Hydrazone Derivative” (Antioxidants, 2022):

Experiments:
[1] = DPPH radical scavenging assay; conditions: DPPH in methanol, 30 min in the dark, absorbance at 517 nm, triplicate
Description: (§1) The antioxidant activity of compound 2 was measured using ABTS antioxidant assay and DPPH radical scavenging assay using ascorbic acid and quercetin as standard compounds. The antioxidant activity of compound 1 was not determined here, as it was isolated as a by-product in trace amounts. Furthermore, this compound is reported, and thus, it was believed unnecessary to pursue its antioxidant capacity.
The 100 µM DPPH stock solution was prepared in absolute methanol. The 2.0 mM stock solutions of compound 2 and the reference standards ascorbic acids and quercetin were also prepared in absolute methanol. Then, these solutions were diluted with methanol to 1000, 500, 250, 100, 50, 25, 12.5, 6.25, 3.13, 1.56, 0.781, 0.391, 0.195, 0.0977, 0.0488, 0.0244, and 0.0122 µM solutions. Afterwards, 0.7 mL of the DPPH solution and 0.7 mL of solutions of compound 2 or standard materials prepared above were mixed in a test tube and kept in the dark for 30 min. After 30 min incubation, the UV absorption at 517 nm was measured. All experiments were performed in triplicate. The radical scavenging rates were obtained from these UV absorption data, and the resulting IC50 values were calculated using Origin 8. Percentage (%) of DPPH radical scavenging = [(A0 − A1)/A0] × 100(2) where A0 was the absorbance of the control, and A1 was the absorbance of the treated sample.

[2] = ABTS antioxidant assay (radical scavenging); conditions: radical cation ABTS•+ in methanol, 60 min in the dark, absorbance at 745 nm, triplicate
Description: as §1
Equal amounts of 7 mM ABTS (2,2′-azino-bis(3-ethylbenzothiazoline-6-sulphonic acid)) stock solution and 2.45 mM potassium persulfate stock solution were mixed and stored at 0 °C for 12 h in the dark to produce the radical cation ABTS^•+. The prepared radical cation ABTS^•+ solution was diluted with methanol so that the UV absorption value was below 1.000 at 745 nm. The compound 2 and reference standards, including ascorbic acid and quercetin, were dissolved in methanol to obtain 2000 µM stock solutions. Then, these solutions were diluted with methanol to 1000, 500, 250, 125, 62.5, 31.3, 15.6, 7.81, 3.91, 1.95, 0.977, 0.488, 0.244, 0.122, and 0.0610 µM solutions. Then, 0.9 mL of the ABTS^•+ solution and 0.1 mL of solutions of compound 2 or standard materials prepared above were mixed in a test tube and kept in the dark for 60 min. After 60 min incubation, the UV absorption at 745 nm was measured. All experiments were performed in triplicate. The radical scavenging rates were obtained from these UV absorption data, and the resulting IC50 values were calculated using Origin 8 (Northampton, MA, USA). Percentage (%) of ABTS radical scavenging = [(A0 − A1)/A0] × 100(1) where A0 was the absorbance of the control, and A1 was the absorbance of the treated sample.

A549 cells = test: Cell cytotoxicity assay (MTT); assay type: cell-based
Description: The A549 cells ([…]) were used in the cytotoxicity assay (MTT (3-(4,5-dimethylthiazol-2-yl)-2,5-diphenyltetrazolium bromide) assay) of compound 2. The A549 cells were grown in an incubator at 37 °C and 5% CO2 using DMEM media containing 2 mM glutamine and 10% FBS. Cells were trypsinized for seeding at 70–90% of cell confluency. About 7000 A549 cells per well were seeded in 96-well plates and incubated for 24 h at 37 °C in the presence of 5% CO2. Then, the media was replaced with the media containing compound 2 at various concentrations, including 0.1, 10, 25, and 50 µM, and incubated for another 24 h. Dimethyl sulfoxide (DMSO) was used as a vehicle. […] After 24 h incubation, the media was replaced with 200 µL of fresh media containing MTT solution and incubated for four hours at 37 °C. The absorbance was recorded at 570 nm to evaluate the cell viability. Each experiment was executed three times. Origin software was used for the data analysis.

Row | IC50 [1] [µM] | IC50 [2] [µM] | Compound | decrease in cell growth compared to the control (A549 cells; 24 h treatment, 50 µM, MTT, DMSO control) [%] | cytotoxicity (cell death) (A549 cells; 24 h treatment, 0.1–25 µM, MTT, DMSO control) | cell cytotoxicity (A549 cells; at 25 µM) | cytotoxicity (A549 cells; below 25 µM)
1 | 28.7 ± 0.65 | 13.2 ± 0.45 | O=C1O[C@H]([C@@H](O)CO)C(O)=C1O [Ascorbic acid, ascorbic acid] |  |  |  | 
2 | 4.02 ± 0.058 | 3.57 ± 0.54 | O=c1c(O)c(-c2ccc(O)c(O)c2)oc2cc(O)cc(O)c12 [Quercetin, quercetin] |  |  |  | 

Row | Compound | IC50 [1] [µM] | IC50 [2] [µM] | decrease in cell growth compared to the control (A549 cells; 24 h treatment, 50 µM, MTT, DMSO control) [%] | cytotoxicity (cell death) (A549 cells; 24 h treatment, 0.1–25 µM, MTT, DMSO control) | cell cytotoxicity (A549 cells; at 25 µM) | cytotoxicity (A549 cells; below 25 µM)
3 | C/C(=N\N=C(/C)c1ccc(O)cc1O)c1ccc(O)cc1O [Compound 2, 4,4′-((1E,1′E)-hydrazine-1,2-diylidenebis(ethan-1-yl-1-ylidene))bis(benzene-1,3-diol)] | 81.06 ± 0.72 | 4.3 ± 0.21 | ~40 | did not show significant cell death | did not show any cell cytotoxicity | almost no cytotoxicity
